Measured values taken from paper PMC9785471, “Exploring Cryptococcus neoformans CYP51 and Its Cognate Reductase as a Drug Target” (Journal of Fungi, 2022).

Molecular target: T1, CnCYP51 (lanosterol 14α-demethylase, CnCYP51-6×His) (Cryptococcus neoformans, UniProt J9VHT4)
T1 construct: gene CNAG_00040; full-length, C-terminal hexahistidine-tagged, codon-optimised, expressed in S. cerevisiae
Experiment: Type II absorbance difference spectral titration of purified CYP51, Hill fit
Assay type: binding

T1 sequence (J9VHT4 entry or part of it): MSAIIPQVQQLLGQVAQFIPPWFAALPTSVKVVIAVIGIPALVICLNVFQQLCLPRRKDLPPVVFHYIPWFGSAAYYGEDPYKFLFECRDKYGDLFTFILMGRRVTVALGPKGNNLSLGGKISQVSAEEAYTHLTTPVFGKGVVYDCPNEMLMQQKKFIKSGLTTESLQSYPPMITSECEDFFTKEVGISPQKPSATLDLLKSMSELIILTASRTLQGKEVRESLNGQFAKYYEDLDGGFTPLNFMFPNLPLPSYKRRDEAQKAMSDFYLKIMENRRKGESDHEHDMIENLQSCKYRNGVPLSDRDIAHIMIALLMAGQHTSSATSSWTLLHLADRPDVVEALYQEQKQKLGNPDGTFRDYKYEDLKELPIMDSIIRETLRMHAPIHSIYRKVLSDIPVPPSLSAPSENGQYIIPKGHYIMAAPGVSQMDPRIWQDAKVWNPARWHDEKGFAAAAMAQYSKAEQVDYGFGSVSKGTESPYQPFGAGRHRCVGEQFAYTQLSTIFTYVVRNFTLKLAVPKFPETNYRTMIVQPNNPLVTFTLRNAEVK

Compound | Kd [nM]
CC[C@@H]([C@H](C)O)n1ncn(-c2ccc(N3CCN(c4ccc(OC[C@@H]5CO[C@@](Cn6cncn6)(c6ccc(F)cc6F)C5)cc4)CC3)cc2)c1=O [PCZ, Posaconazole] | 200 ± 10
C[C@@H](c1ncncc1F)[C@](O)(Cn1cncn1)c1ccc(F)cc1F [VCZ, Voriconazole] | 390 ± 13
